Data as given in patent publication US20260317367A1, “SALTS INCLUDING CRYSTALLINE SALTS OF 25-HYDROXY-CHOLEST-5-EN-3-SULFATE AND METHODS FOR PREPARING SAME” (Durect Corporation, priority 2022, published 2026).
Structures can show the parent of a compound that is named as a salt.

Columns and labels:
Assay type in all cases: physicochemical
[1] = Thermogravimetric analysis (TGA), weight loss
Protocol: Differential scanning calorimetry (DSC) is a thermoanalytical technique where the difference in the amount of heat required to increase the temperature of a sample and reference is measured as a function of temperature. Using this technique, phase transitions of a sample can be measured such as melting point. Decomposition can also be observed by DSC as can dehydration events. In the context of DSC measurements, there is also variability and the term “about” means ±1° C., and such variability is to be understood whether a DSC measurement is prefaced by “about” or not unless specified otherwise. Exemplary methods for collecting DSC data are set forth in Example 21. Thermogravimetric analysis, sometimes referred to as, thermal gravimetric analysis (TGA) is a thermal method of thermal analysis where the mass of a sample is measured as a function of time as the sample temperature changes. For example, when samples disclosed herein are heated and a loss in mass is measured prior to decomposition, this is likely indicative of the loss of water from the sample and may indicate that the sample being heated is a hydrate. Exemplary methods for collecting TGA are set forth in Example 23.
TG analysis was performed using a Mettler-Toledo TGA/DSC3 analyzer. Temperature and enthalpy adjustments were performed using indium, tin, and zinc, and then verified with indium. The balance was verified with calcium oxalate. The sample was placed in an open aluminum pan. The pan was hermetically sealed, the lid pierced, then inserted into the TG furnace. A weighed aluminum pan configured as the sample pan was placed on the reference platform. The furnace was heated under nitrogen. Each sample was heated from ambient temperature to 350° C. at 10° C./min. Although thermograms are plotted by reference temperature (x-axis), results are reported according to sample temperatures.

[2] = Final pH of the solubility sample solutions in aqueous media; conditions: for pH of the solubility sample, 0.9% Sodium Chloride: 0.9% sodium chloride (blank 5.8); for pH of the solubility sample, 5% Dextrose: 5% dextrose (blank 4.7); for pH of the solubility sample, FaSSGF: FaSSGF (blank 1.5, 1.6); for pH of the solubility sample, FaSSIF: FaSSIF (blank 6.5, 6.5); for pH of the solubility sample, FeSSIF: FeSSIF (blank 4.9, 5.0); for pH of the solubility sample, Water: water (blank 6.3)
Protocol: 25HC3S salts were weighed in 8 mL or 4 mL glass vials with Teflon coated screw caps. Aliquots of each solvent were added to each sample and vortexed for about one minute until excess solid remained. Samples were placed on shaker at room temperature with 210 motion per minute shaking.
After one day, samples were pulled and checked if excess solid was present. About 1.5 mL aliquot of each sample was centrifuged at 12000 rpm for 12 to 15 minutes. […] Aliquots of the top clear solution of each centrifuged sample in MeOH, EtOH, IPA and ACN were diluted with diluent (water:MeOH 95:5) and assayed by HPLC. Samples of the salts in aqueous media were assayed by HPLC without dilution.
5.1 Solubility of 25HC3S Salts in Aqueous Media

[3] = Overall rank order of powder flowability (angle of repose and Hausner ratio); conditions: for Powder flowability, overall (in words): angle of repose and compressibility index/Hausner ratio combined; for Angle of Repose Rank Order / Hausner Ratio Rank Order / Overall Rank Order (Total Score): lower is better flow; for Overall Rank Order (Total Score): sum of both ranks
Source text: Table C5 was generated by adding the relative rank order of the 25HC3S salts for angle of repose and Hausner ratio results, and creating an Over All Rank Order of the salts powder flowability. The salts with the lower overall rank order score had better powder flowability.

[4] = Angle of repose of 25HC3S salts
Protocol: Angle of repose is measured as follows. Powder is poured from a funnel onto a flat surface until a cone of powder is created. The angle of repose is calculated according to the following equation: […]
Table C1, from USP<1174> Powder Flow, describes the powder flow properties correlating to the angles of repose.
The lower the angle of repose, the more flowable is a material. Powder with an angle of repose between 25° to 30° will show excellent flow through a hopper, feed frame, die table and die bore smoothly. From 41° to greater than 66°, you may experience powder flow difficulties like rat-holing or bridging within the hopper.
The angle of repose was determined by pouring approximately 2 grams of a 25HC3S salt through a 7 mm inner diameter plastic tube into the center of a 21.14 mm diameter rubber O-ring, resulting in the formation of a powder cone of fixed diameter. The height of the cone was estimated with calipers.

[5] = Appearance (color, clumping, flowability) of stored 25HC3S salts
Protocol: (§1) Approximately 25 mg of each crystalline 25HC3S salt was added to 20 mL glass vials and each powder weight was recorded. Four vials were prepared for each salt and stored at 2-8° C. or 80° C. according to Table B2. The samples were scheduled initially to pull for testing at 3 weeks and 6 weeks' time points.
(§2) For those […] salts, the remaining vials stored at 2-8° C. for 3 weeks were allocated for storage at 60° C. for 1 week. Additional stability data was generated according to Table B3.
For appearance, each unopened vial was visually examined for color, clumping, and flowability.

[6] = Solid-state chemical stability of 25HC3S salts at 2-8° C., 60° C. and 80° C. (HPLC assay and degradation products); conditions: for % Impurities, Total / % Impurities, 25-HC: ND = Not Detected; for % Impurities, 25-HC: 25-Hydroxy-Cholesterol; for % Recovery: vs 2-8° C.; for Overall physical and chemical stability (in words): 60° C.
Protocol: as §1, §2
Based on the molecular weights, and expected UV response factors of each salt used in this study, the expected analytical sample concentrations were within the range of the 25HC3S sodium reference standards (0.75 mg/mL to 1.25 mg/mL as 25HC3S sodium salt). However, due to the lower-than-expected purity of the 25HC3S benzathine salt, an additional standard was prepared at 0.125 mg/mL as 25HC3S sodium salt.
Samples were prepared by pipetting 20 mL of 100% methanol into each vial and mixing well, with sonication and vortexing to fully dissolve the samples for HPLC analysis.
Samples were prepared by pipetting 20 mL of 100% methanol into each vial followed by two rounds of sonication for 30 minutes, with 30 seconds of vortexing before and after each round. Sample aliquots were then centrifuged at 10,000 RPM for 10 minutes and the supernatant collected for HPLC analysis.
Samples were prepared by pipetting 20 mL of 100% methanol into each vial, followed by 5 seconds of vortexing. The undissolved powder in methanol was quantitatively transferred into 200 mL volumetric flasks. The sample vials were rinsed 3 times with methanol, with each rinsate transferred to the 200 mL volumetric flasks. The volumetric flasks were filled to about 90% volume and sonicated for 10 minutes to fully dissolve the powder. The flasks were filled to volume with methanol, mixed well and aliquots collected for HPLC analysis.
HPLC analysis was performed.

[7] = listed as 25HC3S tromethammonium
[8] = 2-8° C., 3 wk, listed as 25HC3S tromethammonium
[9] = 80° C., 3 wk, listed as 25HC3S tromethammonium
[10] = 80° C., 5 wk, listed as 25HC3S tromethammonium
[11] = 80° C., 5 wk, 50400 min, listed as 25HC3S tromethammonium
[12] = 2-8° C., 3 wk, listed as 25HC3S choline
[13] = 80° C., 3 wk, listed as 25HC3S choline
[14] = 2-8° C., 5 wk, listed as 25HC3S choline
[15] = 80° C., 5 wk, listed as 25HC3S choline

SMILES: CC(CCCC(C)(C)O)C1CCC2C3CC=C4CC(OS(=O)(=O)O)CCC4(C)C3CCC12C (centres unmarked) [Salt #8]
- Weight loss by TGA up to about 80° C. ([1]; up to about 80° C.): ~0.3%
- pH of the solubility sample, 0.9% Sodium Chloride [2, 7]: 7.2
- pH of the solubility sample, 5% Dextrose [2, 7]: 7.2
- pH of the solubility sample, FaSSGF [2]: 1.6
- pH of the solubility sample, FaSSIF [2, 7]: 6.5
- pH of the solubility sample, FeSSIF [2, 7]: 4.9
- pH of the solubility sample, Water [2, 7]: 8.4
- Powder flowability, overall (in words) ([3]; listed as tromethammonium): next group
- Angle of Repose Rank Order [3, 7]: 8
- Hausner Ratio Rank Order [3, 7]: 6
- Overall Rank Order (Total Score) [3, 7]: 14
- Flow Property per USP<1174> Powder Flow ([4]; classification by angle of repose, listed as 25HC3S tromethammonium): Fair - aid not needed
- Angle of Repose [4, 7]: 40.2 degrees
- Angle of Repose, Rounded Whole Number [4, 7]: 40 degrees
- Appearance [5, 8]: White, free flowing powder with clumping
- Appearance ([5]; 2-8° C., 5 wk): White, free flowing powder with clumping
- Appearance [5, 9]: White, free flowing powder with clumping
- Appearance ([5]; 80° C., 5 wk): White, free flowing powder with clumping
- Assay ([6]; 2-8° C., 3 wk, 30240 min, listed as 25HC3S tromethammonium): 99.4 % w/w
- % Impurities, Total [6, 8]: 0.9%
- Assay ([6]; 2-8° C., 5 wk, 50400 min, listed as 25HC3S tromethammonium): 105.4 % w/w
- % Impurities, Total ([6]; 2-8° C., 5 wk, listed as 25HC3S tromethammonium): 0.7%
- % Impurities, 25-HC [6, 8]: 0.1%
- % Impurities, 25-HC [6, 9]: 0.1%
- % Impurities, 25-HC [6, 10]: 2.1%
- Stressed stability at 80° C. (in words) ([6]; 80° C.): good, stressed stability
- Physical and chemical solid-state stability (comments) ([6]; 80° C., 3 weeks, listed as 25HC3S Tromethammonium): Stable after 3 weeks at 80 °C
- % Recovery ([6]; 80° C., 3 wk, 30240 min, listed as 25HC3S tromethammonium, 30240 min): 99.8%
- Assay ([6]; 80° C., 3 wk, 30240 min, listed as 25HC3S tromethammonium): 99.2 % w/w
- % Impurities, Total [6, 9]: 1.2%
- % Recovery, 2-8° C./5 wk vs 80° C./5 wk [6, 11]: 91.1%
- Assay [6, 11]: 96.0 % w/w
- % Impurities, Total [6, 10]: 12.3%
- Stability after 3 weeks at 80° C. (in words) ([6]; solid state, 80° C., 3 weeks): stable
- degraded at 840 h ([6]; solid state, 80° C., 5 weeks, read-out: Degradation based on % Recovery to the 2-8° C. control samples): ~9%

SMILES: CC(CCCC(C)(C)O)C1CCC2C3CC=C4CC(OS(=O)(=O)O)CCC4(C)C3CCC12C (centres unmarked) [Salt #4]
- Weight loss by TGA up to 198° C. (in words) ([1]; up to 198° C.): negligible weight loss
- pH of the solubility sample, 0.9% Sodium Chloride ([2]; listed as 25HC3S choline): 8.2
- pH of the solubility sample, 5% Dextrose ([2]; listed as 25HC3S choline): 7.3
- pH of the solubility sample, FaSSGF [2]: 1.6
- pH of the solubility sample, FaSSIF ([2]; listed as 25HC3S choline): 6.5
- pH of the solubility sample, FeSSIF [2]: 5.0
- pH of the solubility sample, Water ([2]; listed as 25HC3S choline): 8.8
- Powder flowability, overall (in words) ([3]; listed as choline): next group
- Angle of Repose Rank Order ([3]; listed as 25HC3S choline): 4
- Hausner Ratio Rank Order ([3]; listed as 25HC3S choline): 15
- Overall Rank Order (Total Score) ([3]; listed as 25HC3S choline): 19
- Angle of Repose ([4]; listed as 25HC3S choline): 34.9 degrees
- Angle of Repose, Rounded Whole Number ([4]; listed as 25HC3S choline): 35 degrees
- Appearance [5, 12]: White, free flowing powder with clumping
- Appearance ([5]; 2-8° C., 5 wk): White, free flowing powder with clumping
- Appearance [5, 13]: White, free flowing powder with clumping
- Appearance ([5]; 80° C., 5 wk): White, free flowing powder with clumping
- Assay ([6]; 2-8° C., 3 wk, 30240 min, listed as 25HC3S choline): 101.6 % w/w
- % Impurities, Total [6, 12]: 1.0%
- Assay ([6]; 2-8° C., 5 wk, 50400 min, listed as 25HC3S choline): 108.1 % w/w
- % Impurities, Total [6, 14]: 0.9%
- Overall physical and chemical stability (in words) ([6]; 2-8° C., 80° C.): physically and chemically stable
- Overall physical and chemical stability (in words) ([6]; 2-8° C., 80° C., listed as 25HC3S choline): relatively stable
- % Impurities, 25-HC [6, 12]: 0.2%
- % Impurities, 25-HC [6, 14]: 0.2%
- % Impurities, 25-HC [6, 13]: 0.4%
- % Impurities, 25-HC [6, 15]: 0.2%
- Stressed stability at 80° C. (in words) ([6]; 80° C.): good, stressed stability
- % Recovery ([6]; 80° C., 3 wk, 30240 min, listed as 25HC3S choline, 30240 min): 100.8%
- Assay ([6]; 80° C., 3 wk, 30240 min, listed as 25HC3S choline): 102.4 % w/w
- % Impurities, Total [6, 13]: 1.2%
- Physical and chemical solid-state stability (comments) ([6]; 80° C., 5 weeks): Stable after 5 weeks at 80 °C physically and chemically.
- Assay ([6]; 80° C., 5 wk, 50400 min, listed as 25HC3S choline): 105.2 % w/w
- % Impurities, Total [6, 15]: 2.2%
- Stability after 5 weeks at 80° C. (in words) ([6]; solid state, 80° C., 5 weeks): stable
- remaining at 840 h ([6]; solid state, 80° C., 5 wk, read-out: % Recovery, 2-8° C./5 wk vs 80° C./5 wk): 97.3%
